Reference: PubChem BioAssay (NCI)
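Values below derive from 48-hour exposures of cells grown in 96-well plates, with endpoints linearly interpolated between the two concentrations bracketing the appropriate inhibition level. GI50 = concentration required for 50% inhibition of growth. TGI: concentration producing complete growth inhibition.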

Experiments:
Assay in all cases: NCI-60 cell line screen, 48 h; in the data active = GI50 below about 0.43 µM; inactive = the rest
[1] = system: M14 melanoma
[2] = system: MDA-MB-435
[3] = system: HCT-15 colon
[4] = system: COLO 205 colon
[5] = system: IGROV1 ovarian
[6] = system: KM12 colon
[7] = system: SR leukemia
[8] = system: SF-295 CNS
[9] = system: A498 renal
[10] = system: CAKI-1 renal
[11] = system: BT-549 breast
[12] = system: SW-620 colon
[13] = system: OVCAR-5 ovarian
[14] = system: ACHN renal
[15] = system: CCRF-CEM leukemia
[16] = system: MCF7 breast
[17] = system: HOP-92 NSCLC
[18] = system: SK-MEL-28 melanoma
[19] = system: NCI-H23 lung
[20] = system: NCI-H226 lung
[21] = system: T-47D breast
[22] = system: UO-31 renal
[23] = system: SK-MEL-5 melanoma
[24] = system: DU-145 prostate
[25] = system: TK-10 renal
[26] = system: MALME-3M melanoma
[27] = system: LOX IMVI melanoma
[28] = system: HCC-2998 colon
[29] = system: PC-3 prostate
[30] = system: MOLT-4 leukemia
[31] = system: SNB-19 CNS
[32] = system: OVCAR-8 ovarian
[33] = system: EKVX NSCLC
[34] = system: HT29 colon
[35] = system: UACC-257 melanoma
[36] = system: 786-0 renal
[37] = system: HCT-116 colon
[38] = system: RPMI-8226 leukemia
[39] = system: A549 NSCLC
[40] = system: RXF 393 renal
[41] = system: OVCAR-4 ovarian
[42] = system: HOP-62 NSCLC
[43] = system: K-562 leukemia
[44] = system: HL-60(TB) leukemia
[45] = system: SF-268 CNS
[46] = system: SNB-75 CNS
[47] = system: SK-MEL-2 melanoma
[48] = system: SF-539 CNS
[49] = system: U251 CNS
[50] = system: MDA-MB-231 breast
[51] = system: NCI-H460 lung
[52] = system: OVCAR-3 ovarian
[53] = system: NCI/ADR-RES ovarian
[54] = system: HS 578T breast
[55] = system: UACC-62 melanoma
[56] = system: SK-OV-3 ovarian
[57] = system: NCI-H522 lung
[58] = system: SN12C renal

C[n+]1cn(-c2ccc([N+](=O)[O-])cn2)c2ccccc21
> 100 µM: TGI [1] | TGI [2] | TGI [3] | TGI [4] | TGI [5] | TGI [6] | TGI [7] | TGI [8] | TGI [9] | TGI [10] | TGI [11] | TGI [12] | TGI [13] | TGI [14] | TGI [15] | TGI [16] | TGI [17] | TGI [18] | TGI [19] | TGI [20] | TGI [21] | TGI [22] | TGI [23] | TGI [24] | TGI [25] | TGI [26] | TGI [27] | TGI [28] | TGI [29] | TGI [30] | TGI [31] | TGI [32] | TGI [33] | TGI [34] | TGI [35] | TGI [36] | TGI [37] | TGI [38] | TGI [39] | TGI [40] | TGI [41] | TGI [42] | TGI [43] | TGI [44] | TGI [45] | TGI [46] | TGI [47] | TGI [48] | TGI [49] | TGI [50] | TGI [51] | TGI [52] | TGI [53] | TGI [54] | TGI [55] | TGI [56]

CCC(=O)Oc1cc(/C=C/C(=O)O[C@H]2C[C@H]3CN4CCc5c([nH]c6cc(OC)ccc56)[C@@H]4C[C@@H]3[C@@H](C(=O)OC)[C@@H]2OC)ccc1OC
28.5 µM: TGI [23]
17.7 µM: TGI [4]
88.1 µM: TGI [49]
24.3 µM: TGI [16]
55.1 µM: TGI [27]
11.9 µM: TGI [34]
30.9 µM: TGI [48]
9.9 µM: TGI [9]
29 µM: TGI [26]
26.9 µM: TGI [44]
67.5 µM: TGI [52]
11.5 µM: TGI [17]
23.8 µM: TGI [3]
29.5 µM: TGI [55]
36.6 µM: TGI [47]
35.2 µM: TGI [18]
75.8 µM: TGI [5]
28.4 µM: TGI [50]
62.4 µM: TGI [11]
26.8 µM: TGI [46]
> 100 µM: TGI [1] | TGI [6] | TGI [7] | TGI [8] | TGI [10] | TGI [12] | TGI [13] | TGI [14] | TGI [15] | TGI [19] | TGI [20] | TGI [22] | TGI [24] | TGI [28] | TGI [29] | TGI [30] | TGI [31] | TGI [32] | TGI [35] | TGI [36] | TGI [39] | TGI [42] | TGI [43] | TGI [45] | TGI [58] | TGI [51] | TGI [53] | TGI [54] | TGI [56]
29.2 µM: TGI [2]
33.6 µM: TGI [57]
inactive: GI50 [1] 13.1 µM | GI50 [2] 12 µM | GI50 [3] 5.7 µM | GI50 [4] 4.57 µM | GI50 [5] 14.1 µM | GI50 [6] 18.7 µM | GI50 [7] 2.27 µM | GI50 [8] 31 µM | GI50 [9] 1.94 µM | GI50 [10] 3.22 µM | GI50 [11] 7.53 µM | GI50 [12] 15.9 µM | GI50 [13] 40.4 µM | GI50 [14] 5.34 µM | GI50 [15] 3.75 µM | GI50 [16] 5.16 µM | GI50 [17] 1.58 µM | GI50 [18] 13.6 µM | GI50 [19] 20.5 µM | GI50 [20] 11.8 µM | GI50 [21] 10.8 µM | GI50 [22] 4.82 µM | GI50 [23] 13 µM | GI50 [24] 18 µM | GI50 [25] 14 µM | GI50 [26] 6.75 µM | GI50 [27] 13.1 µM | GI50 [28] 47.1 µM | GI50 [29] 15 µM | GI50 [30] 3.87 µM | GI50 [31] 22.4 µM | GI50 [32] 19.7 µM | GI50 [34] 3.37 µM | GI50 [35] 15 µM | GI50 [36] 7.26 µM | GI50 [37] 9.11 µM | GI50 [39] 21.6 µM | GI50 [40] 3.68 µM | GI50 [42] 25.2 µM | GI50 [43] 4.06 µM | GI50 [57] 16.2 µM | GI50 [44] 3.7 µM | GI50 [45] 14.1 µM | GI50 [58] 12 µM | GI50 [46] 3.74 µM | GI50 [47] 17.6 µM | GI50 [48] 12.3 µM | GI50 [49] 9.67 µM | GI50 [50] 5 µM | GI50 [51] 28.6 µM | GI50 [52] 7.3 µM | GI50 [53] 20.5 µM | GI50 [54] 5.3 µM | GI50 [55] 12.1 µM | GI50 [56] 59 µM
45.1 µM: TGI [25]
41.2 µM: TGI [21]
17.4 µM: TGI [40]
78.9 µM: TGI [37]

Cc1ccc(S(=O)(=O)Oc2ccccc2-c2ccccc2)cc1
0.834 µM: TGI [2]
active: GI50 [2] 0.249 µM
8.94 µM: TGI [9]
> 26.1 µM: TGI [47]
> 29 µM: TGI [46]
> 43.2 µM: TGI [34]
> 100 µM: TGI [3] | TGI [5] | TGI [6] | TGI [11] | TGI [12] | TGI [13] | TGI [14] | TGI [15] | TGI [16] | TGI [17] | TGI [18] | TGI [19] | TGI [20] | TGI [21] | TGI [23] | TGI [25] | TGI [27] | TGI [29] | TGI [30] | TGI [31] | TGI [32] | TGI [33] | TGI [35] | TGI [36] | TGI [37] | TGI [39] | TGI [41] | TGI [42] | TGI [43] | TGI [44] | TGI [45] | TGI [58] | TGI [49] | TGI [50] | TGI [51] | TGI [55]
> 25.5 µM: TGI [10]
> 45.8 µM: TGI [56]
> 72.7 µM: TGI [28]
> 28.9 µM: TGI [53]
inactive: GI50 [1] 2.05 µM | GI50 [3] 1.62 µM | GI50 [4] 2.25 µM | GI50 [5] 2.16 µM | GI50 [6] 0.743 µM | GI50 [7] 0.465 µM | GI50 [8] 0.702 µM | GI50 [9] 1.42 µM | GI50 [10] 1.3 µM | GI50 [11] 8.41 µM | GI50 [12] 1.03 µM | GI50 [13] 8.26 µM | GI50 [14] 6.81 µM | GI50 [15] 2.48 µM | GI50 [16] 2.47 µM | GI50 [17] 5.73 µM | GI50 [18] 7.77 µM | GI50 [19] 5.21 µM | GI50 [20] 21.2 µM | GI50 [21] 5.14 µM | GI50 [22] 4.01 µM | GI50 [23] 2.98 µM | GI50 [24] 2.87 µM | GI50 [25] 12 µM | GI50 [27] 4.22 µM | GI50 [28] 3.87 µM | GI50 [29] 3.52 µM | GI50 [30] 3.9 µM | GI50 [31] 5.24 µM | GI50 [32] 4.86 µM | GI50 [33] 3.21 µM | GI50 [34] 1.18 µM | GI50 [35] 4.35 µM | GI50 [36] 8.26 µM | GI50 [37] 2.85 µM | GI50 [38] 3.42 µM | GI50 [39] 4.4 µM | GI50 [40] 2.31 µM | GI50 [41] 7.13 µM | GI50 [42] 4.24 µM | GI50 [43] 0.524 µM | GI50 [57] 0.542 µM | GI50 [44] 2.12 µM | GI50 [45] 5.95 µM | GI50 [58] 6.18 µM | GI50 [46] 2.63 µM | GI50 [47] 6.55 µM | GI50 [48] 2.38 µM | GI50 [49] 3.81 µM | GI50 [50] 3.7 µM | GI50 [51] 2.32 µM | GI50 [52] 1.81 µM | GI50 [53] 1.13 µM | GI50 [54] 3.09 µM | GI50 [55] 2.3 µM | GI50 [56] 3.24 µM
6.94 µM: TGI [52]
> 29.8 µM: TGI [24]
> 86.1 µM: TGI [1]
> 26.9 µM: TGI [54]
7.83 µM: TGI [57]
8.1 µM: TGI [48]
> 55.6 µM: TGI [38]
3.3 µM: TGI [8]
> 75.7 µM: TGI [22]
> 70.7 µM: TGI [7]
> 27.7 µM: TGI [40]
8.41 µM: TGI [4]
